# Experimental data: patent publication US8575173B2, “Piperazinyl 3-aminopyrrolidine derivatives as a CCR2 antagonists” (Yang Ji Chemical Co., Ltd., priority 2009, dated 2013)
# Legend:
# [1] = target: CYP3A4 (Homo sapiens, UniProt P08684); experiment: CYP450 inhibitory activity, CYP3A4; assay type: in vitro ADME; conditions: CYP3A4 enzyme membrane, 10 μM compound, read-out: Inhibition of CYP450, % @10 μM: 3A4
# Protocol: (§1) It is analyzed inhibitory activity assay on 5 types (CYP3A4, 2C9, 2C19, 2D6, 1A2) of 11 types CYP450, drug metabolic enzyme. Luciferin detection reagent is dissolved in buffer solution and each CYP enzyme membrane is prepared.
# (§2) 4-fold concentration of the compound in 6.25 μl is prepared, and added to 6.25 μl mixture containing enzyme and proper different substrate depending on enzyme types, and kept for 10 min. After reacting with 12.5 μl NADPH regeneration reagent of CYP enzyme for 30 min, adding 25 μl luciferin detection reagent and keeping for 20 min, luminescence is measured at Fusion α.
# [2] = test system: CHO-K1; experiment: Cytotoxicity (cell viability, MTS assay), CHO-K1; assay type: cell-based; conditions: 10 μM compound, vs control group
# Text: (§3) The MTS (3-(4,5-dimethylthiazol-2-yl)-5-(3-carboxymethoxyphenyl)-2-(4-sulfophenyl)-2H-tetrazolium, inner salt, Promega, U.S.A) assay to THP-1 cell is used to measure cytotoxicity of test compound. The MTS assay is applicable to sensitively measure viability, multiplication and activity of cell and is a method using transformation the yellow MTS into insoluble formazan by dehydrogenase of mitochondria during metabolism of viable cell. The THP-1 cell is proliferated on RPMI-1640 supplemented with 10% fetal bovine serum under 37° C., at 5% CO2 incubator. Cell density is maintained around 0.5×10^6 cells/ml. THP-1 cell is poured into 96-well plate in 1×10^6 cell/ml and treating with 1, 10 μM concentration of test compound, after 24 hours 20 μl of 317 μg/ml MTS is treated to 96-well plate. Cell viability as the he absorbance of crystalline formazan of test group to control group observed at 490 nm using ELISA reader after 1 hour is calculated by following mathematical formula 2. Cell viability(%)=(Absorbance of experimental wells)/(Absorbance of control wells))×100 [Mathematical Formula 2]
# (§4) The cell cytotoxicity test is performed to many cell lines, for example HepG2, NIH3T3, CHO-K1, HEK293, in addition to THP-1 illustrated above, and test procedures related to these are same or similar as described method above.
# [3] = test system: NIH 3T3; experiment: Cytotoxicity (cell viability, MTS assay), NIH 3T3; assay type: cell-based; conditions: 10 μM compound, vs control group
# Text: as §3, §4
# [4] = target: T1, CCR2b (Homo sapiens, UniProt P41597); experiment: CCR2 inhibitory effect on Ca2+ flux (HEK293/CCR2b, MCP-1 stimulated); assay type: cell-based; conditions: HEK293/CCR2b cells, MCP-1 added; read-out: Blocking Ca^2+ flux, IC50
# T1 construct: expressed in transfected cells; host or cells: HEK293
# T1 sequence (P41597 1-360 isoform P41597-2): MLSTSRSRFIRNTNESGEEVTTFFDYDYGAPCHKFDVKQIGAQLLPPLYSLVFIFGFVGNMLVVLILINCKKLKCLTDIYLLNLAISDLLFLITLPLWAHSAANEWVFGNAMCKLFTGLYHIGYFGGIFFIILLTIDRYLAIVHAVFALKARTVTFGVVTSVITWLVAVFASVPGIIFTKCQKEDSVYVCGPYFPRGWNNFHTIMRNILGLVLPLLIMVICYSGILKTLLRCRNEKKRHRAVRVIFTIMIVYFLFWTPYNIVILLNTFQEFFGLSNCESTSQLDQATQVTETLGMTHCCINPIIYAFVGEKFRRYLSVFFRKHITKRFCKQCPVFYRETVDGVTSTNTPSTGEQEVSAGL
# Protocol: After seeding CCR2b transformed cell (HEK293/CCR2b) on black-clear bottom plate coated with lysine, it was adapted for 24 hours and exchanged into serum free media (DMEM) and allowed to cultivate overnight. Next day After the compound is treated with Flour-4 (calcium dye, Molecular probe) and cultivated for 50 min on incubator, it is washed calcium-free buffer solution and pretreated for 10-15 min. It is added with MCP-1 and its signal is measured with FlexStation^II (Molecular device).
# [5] = target: CYP2C9 (Homo sapiens, UniProt P11712); experiment: CYP450 inhibitory activity, CYP2C9; assay type: in vitro ADME; conditions: CYP2C9 enzyme membrane, 10 μM compound, read-out: Inhibition of CYP450, % @10 μM: 2C9
# Sequence of CYP2C9 (P11712 whole entry): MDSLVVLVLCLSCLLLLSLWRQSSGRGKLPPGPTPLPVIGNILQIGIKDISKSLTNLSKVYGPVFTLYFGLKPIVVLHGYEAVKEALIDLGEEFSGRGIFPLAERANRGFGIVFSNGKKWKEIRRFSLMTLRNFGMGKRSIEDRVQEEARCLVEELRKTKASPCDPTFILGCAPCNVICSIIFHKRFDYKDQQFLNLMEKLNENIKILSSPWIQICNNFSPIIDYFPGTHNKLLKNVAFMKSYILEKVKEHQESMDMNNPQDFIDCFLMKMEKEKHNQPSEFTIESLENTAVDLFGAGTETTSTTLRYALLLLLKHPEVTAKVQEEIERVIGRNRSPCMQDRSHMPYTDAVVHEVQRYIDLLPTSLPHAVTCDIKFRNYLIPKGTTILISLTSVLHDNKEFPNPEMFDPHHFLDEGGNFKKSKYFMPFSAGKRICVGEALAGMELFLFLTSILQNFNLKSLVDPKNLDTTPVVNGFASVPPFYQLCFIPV
# Protocol: as §1, §2
# [6] = target: CYP2C19 (Homo sapiens, UniProt P33261); experiment: CYP450 inhibitory activity, CYP2C19; assay type: in vitro ADME; conditions: CYP2C19 enzyme membrane, 10 μM compound, read-out: Inhibition of CYP450, % @10 μM: 2C19
# Sequence of CYP2C19 (P33261 whole entry): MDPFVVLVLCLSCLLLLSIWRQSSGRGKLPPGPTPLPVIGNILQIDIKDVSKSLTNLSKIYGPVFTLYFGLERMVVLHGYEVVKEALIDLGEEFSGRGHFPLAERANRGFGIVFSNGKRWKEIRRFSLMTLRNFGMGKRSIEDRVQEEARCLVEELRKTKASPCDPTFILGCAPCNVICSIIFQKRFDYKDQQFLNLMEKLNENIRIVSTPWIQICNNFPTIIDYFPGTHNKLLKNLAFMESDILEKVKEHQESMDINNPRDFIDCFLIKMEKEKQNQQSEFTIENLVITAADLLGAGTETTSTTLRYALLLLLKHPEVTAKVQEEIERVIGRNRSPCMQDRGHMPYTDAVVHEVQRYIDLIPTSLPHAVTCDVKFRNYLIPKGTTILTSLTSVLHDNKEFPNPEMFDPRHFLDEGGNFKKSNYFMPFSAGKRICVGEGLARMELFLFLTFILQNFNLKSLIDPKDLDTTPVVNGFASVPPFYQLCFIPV
# Protocol: as §1, §2
# [7] = test system: HepG2; experiment: Cytotoxicity (cell viability, MTS assay), HepG2; assay type: cell-based; conditions: 10 μM compound, vs control group
# Text: as §3, §4
# [8] = target: T2, CYP1A2 (Homo sapiens, UniProt P05177); experiment: CYP450 inhibitory activity, CYP1A2; assay type: in vitro ADME; conditions: CYP1A2 enzyme membrane, 10 μM compound, read-out: Inhibition of CYP450, % @10 μM: 1A2
# T2 sequence (P05177 1-516): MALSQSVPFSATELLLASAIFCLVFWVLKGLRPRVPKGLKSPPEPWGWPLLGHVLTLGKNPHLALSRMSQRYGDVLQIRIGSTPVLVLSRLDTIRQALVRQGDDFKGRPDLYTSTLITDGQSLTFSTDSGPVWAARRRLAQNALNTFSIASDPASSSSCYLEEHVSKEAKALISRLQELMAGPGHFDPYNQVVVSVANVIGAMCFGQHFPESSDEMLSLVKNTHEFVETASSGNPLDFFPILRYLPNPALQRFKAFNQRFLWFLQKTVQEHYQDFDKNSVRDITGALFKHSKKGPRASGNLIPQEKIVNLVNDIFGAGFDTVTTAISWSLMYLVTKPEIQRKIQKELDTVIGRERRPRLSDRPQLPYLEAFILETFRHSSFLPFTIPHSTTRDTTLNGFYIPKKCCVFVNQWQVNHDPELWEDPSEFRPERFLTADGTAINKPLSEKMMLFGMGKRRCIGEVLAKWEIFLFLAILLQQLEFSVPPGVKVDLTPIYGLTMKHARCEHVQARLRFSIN
# Protocol: as §1, §2
# [9] = target: T3, CCR2 (Homo sapiens, UniProt P41597); experiment: CCR2 receptor protein binding assay ([125I]-MCP1); design: purchased Perkinelmer, USA; host or cells: CHO cell membranes; conditions: [125I]-MCP1 binding, CCR2 membrane expressed in CHO cell; read-out: Affinity to CCR2 receptor, IC50
# T3 sequence (P41597 whole entry): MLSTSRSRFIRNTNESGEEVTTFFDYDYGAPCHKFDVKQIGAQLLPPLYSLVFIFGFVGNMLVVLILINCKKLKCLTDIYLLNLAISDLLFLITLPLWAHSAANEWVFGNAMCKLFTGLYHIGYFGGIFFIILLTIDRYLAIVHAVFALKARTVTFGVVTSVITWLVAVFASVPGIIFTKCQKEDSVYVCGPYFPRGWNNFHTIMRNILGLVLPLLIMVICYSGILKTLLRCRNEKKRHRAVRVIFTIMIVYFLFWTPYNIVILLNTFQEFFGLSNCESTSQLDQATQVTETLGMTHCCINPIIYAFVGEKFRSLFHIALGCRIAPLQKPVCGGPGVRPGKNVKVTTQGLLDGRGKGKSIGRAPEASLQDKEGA
# Protocol: The buffer used for receptor binding assay is 50 mM Hepes (pH 7.4) containing 5 mM MgCl2, 1 mM CaCl2 and 0.5% BSA. The resultant reaction mixture in final volume 0.25 ml is prepared by adding CCR2 membrane (10 μg/well), [^125I]-MCP1 to test drug in 96-well plate on [^125I]-MCP1 binding assay and is cultivated on 27° C. for 60 min.
# After incubation, reaction is terminated with fast filtering through Wallac filtermat A GF/C glass fiber filter (Wallac, Finland) pre-wetted in 0.5% PEI using Inotech harvester (Inotech) and is washed in cold 50 mM Tris-HCl (pH 7.4) buffer solution. After filter is covered with MeltiLex, it is sealed in sample bag, dried on oven, and counted using MicroBeta Plus (Wallac).
# […] is used in non-specific binding measurement.
# [10] = target: T3, CCR2; experiment: Inhibitory effect on MCP-1 induced chemotaxis of THP-1 cells; assay type: cell-based; design: endogenous in cells; host or cells: THP-1; conditions: hMCP-1 10 ng/ml, 2 hours, read-out: Inhibition of Chemotaxis, IC50
# Protocol: Antagonistic effect on the compound on CCR2 activity was measured by leukocyte chemotaxis assay using a proper cell line.
# The used cell line is THP-1 and it is proliferated RPMI-1640 supplemented with 10% fetal calf serum under 37° C. at 5% CO2 incubator. Cell density was maintained near about 0.5×10^6 cells/ml.
# Cell is allowed to have chemotaxis under 37° C., 5% CO2 incubator for 2 hours. After incubating for 2 hours, cells which is not moved from the upper side of filter are removed by wiping the filter with cotton swab.
# The cells moved to lower chamber was measured using fluorescent plate reader under λexcite=480 nm, λexit=520 nm.
# The chemotaxis may be described as chemotaxis coefficient, ratio between mean value of cells moved under existence of MCP-1 and mean value of cells moved under absence of chemokine.
# [11] = test system: HEK 293; experiment: Cytotoxicity (cell viability, MTS assay), HEK 293; assay type: cell-based; conditions: 10 μM compound, vs control group
# Text: as §3, §4
# [12] = target: CYP2D6 (Homo sapiens, UniProt P10635); experiment: CYP450 inhibitory activity, CYP2D6; assay type: in vitro ADME; conditions: CYP2D6 enzyme membrane, 10 μM compound, read-out: Inhibition of CYP450, % @10 μM: 2D6
# Sequence of CYP2D6 (P10635 whole entry, the tested form may be a part): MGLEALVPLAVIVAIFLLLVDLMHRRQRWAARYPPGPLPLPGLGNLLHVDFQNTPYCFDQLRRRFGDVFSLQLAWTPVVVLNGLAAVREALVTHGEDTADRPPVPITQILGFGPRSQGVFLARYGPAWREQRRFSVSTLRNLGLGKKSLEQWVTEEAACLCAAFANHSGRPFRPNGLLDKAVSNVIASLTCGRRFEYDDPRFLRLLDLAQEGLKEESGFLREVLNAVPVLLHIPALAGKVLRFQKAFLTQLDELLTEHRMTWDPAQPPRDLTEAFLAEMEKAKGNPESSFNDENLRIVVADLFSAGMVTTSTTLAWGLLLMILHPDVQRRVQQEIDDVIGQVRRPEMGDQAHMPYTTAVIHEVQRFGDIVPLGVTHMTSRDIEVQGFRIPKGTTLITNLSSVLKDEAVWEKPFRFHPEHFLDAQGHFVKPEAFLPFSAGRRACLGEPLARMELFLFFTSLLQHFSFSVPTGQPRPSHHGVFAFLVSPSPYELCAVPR
# Protocol: Luciferin detection reagent is dissolved in buffer solution and each CYP enzyme membrane is prepared. […] After reacting with 12.5 μl NADPH regeneration reagent of CYP enzyme for 30 min, adding 25 μl luciferin detection reagent and keeping for 20 min, luminescence is measured at Fusion α.
# Sequence of CYP3A4 (P08684 whole entry): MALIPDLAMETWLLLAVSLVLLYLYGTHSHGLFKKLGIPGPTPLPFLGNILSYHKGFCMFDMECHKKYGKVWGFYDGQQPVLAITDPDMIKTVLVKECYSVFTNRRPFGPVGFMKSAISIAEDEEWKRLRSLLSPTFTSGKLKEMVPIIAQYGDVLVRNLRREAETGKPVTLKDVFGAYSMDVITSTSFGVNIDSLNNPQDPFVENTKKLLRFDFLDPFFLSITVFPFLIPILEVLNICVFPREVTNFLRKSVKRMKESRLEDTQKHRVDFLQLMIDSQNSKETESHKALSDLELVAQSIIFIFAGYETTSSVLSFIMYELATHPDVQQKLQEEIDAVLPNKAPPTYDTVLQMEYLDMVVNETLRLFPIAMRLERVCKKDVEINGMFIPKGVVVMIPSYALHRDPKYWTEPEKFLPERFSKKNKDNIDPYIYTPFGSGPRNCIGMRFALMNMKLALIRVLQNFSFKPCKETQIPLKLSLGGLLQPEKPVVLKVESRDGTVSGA
Compound,"inhibition at 30 min, 10 µM [1] [%]","Cell viability, % @10 μM: CHO-K1 [2] [%]","Cell viability, % @10 μM: NIH 3T3 [3] [%]",IC50 [4] [nM],"inhibition at 30 min, 10 µM [5] [%]","inhibition at 30 min, 10 µM [6] [%]","Cell viability, % @10 μM: HepG2 [7] [%]","inhibition at 30 min, 10 µM [8] [%]",IC50 [9] [nM],IC50 [10] [nM],"Cell viability, % @10 μM: HEK 293 [11] [%]","inhibition at 30 min, 10 µM [12] [%]"
"Cc1ccccc1C(=O)N1CCN(CCN2CC[C@@H](NC(=O)CNC(=O)c3cccc(C(F)(F)F)c3)C2)CC1 [Example 7, N-{[1-(2-(4-(2-methylbenzoyl)piperazine-1-yl)ethyl)-pyrrolidine-(3R)-yl-carbamoyl]-methyl}-3-trifluoromethylbenzamide]",28.2,80.1,73.0,120,19,9.5,105.8,6.6,4440,70,66.9,-3.5
"O=C(CNC(=O)c1cccc(C(F)(F)F)c1)N[C@@H]1CCN(CCN2CCN(C(=O)c3ccccc3)CC2)C1 [Example 6, N-{[1-(2-(4-benzoylpiperazine-1-yl)ethyl)-pyrrolidine-(3R)-yl-carbamoyl]-methyl}-3-trifluoromethylbenzamide]",6.5,84.6,70.6,18,23.6,14.2,73.5,23.5,990,9,59.3,8.5
